Results published in US6632832B1 (Dabur Research Foundation, priority 2002, dated 2003).
In brackets after ≈: the same amount, converted by molar mass.

Legend:
[1] = system: KB (oral); assay: MTT cytotoxicity assay, 72 hours; format: cell-based, human; conditions: KB (Oral), 72 h MTT, Table 2
Experimental: (§1) After 72 hours, the assay was terminated and percent cyotoxicities calculated.

[2] = system: HBL100 (breast); assay: MTT cytotoxicity assay, 72 hours; format: cell-based, human; conditions: HBL100 (Breast), 72 h MTT, Table 2
Experimental: as §1

[3] = system: PA1 (ovary); assay: MTT cytotoxicity assay, 72 hours; format: cell-based, human; conditions: PA-1 (Ovary), 72 h MTT, Table 2
Experimental: as §1

[4] = system: U87.MG (glioblastoma); assay: MTT cytotoxicity assay, 72 hours; format: cell-based, human; conditions: U87MG (Glioblastoma), 72 h MTT, Table 2
Experimental: as §1

[5] = system: B16F10 (melanoma); assay: MTT cytotoxicity assay, 72 hours; format: cell-based, human; conditions: B16.F10 (Melanoma), 72 h MTT, Table 2
Experimental: as §1

[6] = system: MOLT4 (leukemia); assay: MTT cytotoxicity assay, 72 hours; format: cell-based, human; conditions: MOLT-4 (Leukemia), 72 h MTT, Table 2
Experimental: as §1

[7] = system: PTC (colon); assay: MTT cytotoxicity assay, 72 hours; format: cell-based, human; conditions: PTC (Colon), 72 h MTT, Table 2
Experimental: as §1

[8] = system: MiaPaCa.2 (pancreas); assay: MTT cytotoxicity assay, 72 hours; format: cell-based, human; conditions: MiaPaCa.2 (Pancreas), 72 h MTT, Table 2
Experimental: as §1

[9] = system: L132 (lung); assay: MTT cytotoxicity assay, 72 hours; format: cell-based, human; conditions: L132 (Lung), 72 h MTT, Table 2
Experimental: as §1

[10] = system: β-receptor; conditions: preclinical studies; cited from earlier work

| SMILES | ED50 [1] | ED50 [2] | ED50 [3] | ED50 [4] | ED50 [5] | ED50 [6] | ED50 [7] | ED50 [8] | ED50 [9] | potency for β-blockade relative to carvedilol [10] |
| --- | --- | --- | --- | --- | --- | --- | --- | --- | --- | --- |
| COc1ccccc1OCCNC[C@H](O)COc1cccc2[nH]c3ccccc3c12 (single isomer, unassigned) [S(−) isomer] | 19.0 ± 3.4 µg/mL (≈ 46.7 µM) | 33.5 ± 4.2 µg/mL (≈ 82.4 µM) | 13.0 ± 1.3 µg/mL (≈ 32 µM) | 18.5 ± 2.1 µg/mL (≈ 45.5 µM) | 11.4 ± 2.1 µg/mL (≈ 28 µM) | 17.0 ± 2.5 µg/mL (≈ 41.8 µM) | 7.5 ± 0.4 µg/mL (≈ 18.5 µM) | 33.0 ± 3.9 µg/mL (≈ 81.2 µM) | 22.6 ± 3.8 µg/mL (≈ 55.6 µM) |  |
| COc1cc(O)ccc1OCCNCC(O)COc1cccc2[nH]c3ccccc3c12 (stereo not shown) [4′-hydroxyphenyl metabolite] |  |  |  |  |  |  |  |  |  | approximately 13 times |
